The results in this text go back to patent US20060089375A1, “Pyrazolo[3,4-b] pyridine compounds, and their use as phosphodiesterase inhibitors” (priority 2002, published 2006).

The series deals with LPS-induced pulmonary neutrophilia and emetic episodes in the conscious ferret. The series can be described thus: In Vivo Assay 4: Therapeutic Index of PDE4 inhibitors in the conscious ferret (LPS neutrophilia and emesis). The procedure:
PDE4 inhibitors are prepared for oral (p.o.) administration by dissolving in a fixed volume (1 ml) of acetone and then adding cremophor to 20% of the final volume. Acetone is evaporated by directing a flow of nitrogen gas onto the solution. Once the acetone is removed, the solution is made up to final volume with distilled water. LPS is dissolved in phosphate buffered saline.
Male ferrets (Mustela Pulorius Furo, weighing 1-2 kg) are transported and allowed to acclimatise for not less than 7 days. The diet comprises SDS diet C pelleted food given ad lib with Whiskers™ cat food given 3 times per week. The animals are supplied with pasteurised animal grade drinking water changed daily.
PDE4 inhibitors are administered orally (p.o.), using a dose volume of 1 ml/kg. Ferrets are fasted overnight but allowed free access to water. The animals are orally dosed with vehicle or PDE 4 inhibitor using a 15 cm dosing needle that is passed down the back of the throat into the oesophagus. After dosing, the animals are returned to holding cages fitted with perspex doors to allow observation, and given free access to water. The animals are constantly observed and any emetic episodes (retching and vomiting) or behavioural changes are recorded. The animals are allowed access to food 60-90 minutes after p.o. dosing.
Thirty minutes after oral dosing with compound or vehicle control, the ferrets are placed into sealed perspex containers and exposed to an aerosol of LPS (30 μg/ml) for 10 minutes. Aerosols of LPS are generated by a nebuliser (DeVilbiss, USA) and this is directed into the perspex exposure chamber. Following a 10-minute exposure period, the animals are returned to the holding cages and allowed free access to water, and at a later stage, food. General observation of the animals continues for a period of at least 2.5 hours post oral dosing. All emetic episodes and behavioural changes are recorded.
Six hours after LPS exposure the animals are killed by overdose of sodium pentobarbitone administered intraperitoneally. […] From this, the total number of neutrophils in the BAL sample is determined. […]

Turning to `O=C(Nc1c(Cl)cncc1Cl)c1ccc(OC(F)F)c(OCC2CC2)c1` [roflumilast], the “Therapeutic index (TI), ferret Assay 4” value (D20 emesis / D50 neutrophilia, ferret p.o.) is on record as 1.02. For the same compound, the D20 for emesis (p.o., ferret, dose giving 20% incidence of emesis) came out at 0.5 mg/kg. Further, the D50 for neutrophilia (p.o., ferret, dose giving 50% inhibition of LPS-induced pulmonary neutrophilia) came to 0.49 mg/kg.
